Measured values from the supplement of paper PMC10307832.

What was measured:
Test in all cases: relative viability (nuclei count vs DMSO), 5 days (fraction); higher = more cells survive
Wnt-C59 = compound: CC1=NC=CC(=C1)C2=CC=C(C=C2)CC(=O)NC3=CC=C(C=C3)C4=CN=CC=C4 [Wnt-C59]
Summary of the method: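 Hoechst staining, done together with fixation and permeabilisation, marked nuclei for 4× imaging and MetaXpress counting. This followed 5 days without medium change after lung cancer cell lines, kept overnight at 37 °C in 1536-well plates, were pinned with five library-drug doses (not always all listed) spaced by √10 on vehicle-anchored plates. Viability is the ratio of treated-well to vehicle-well nuclei, expressed as a median across plates. Plates passed only at control CV below 25% with at least one doubling.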

Wnt-C59 + OSI-027 = compound: CC1=NC=CC(=C1)C2=CC=C(C=C2)CC(=O)NC3=CC=C(C=C3)C4=CN=CC=C4 [Wnt-C59] + COc1cccc2cc(-c3nc([C@H]4CC[C@H](C(=O)O)CC4)n4ncnc(N)c34)[nH]c12 [OSI-027] (partner 0.5 µM)
Summary of the method: (§1)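 Dosing by pin tool came one day after lung cancer cell lines were seeded in 1536-well plates, using either one drug or a fixed anchor-drug dose plus five library-drug doses (not always all listed) in √10 steps. After 5 days, nuclei were counted on 4× images. Relative viability is treated-well nuclei count divided by vehicle-well nuclei count, and values are medians of duplicate plates.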

Lapatinib + Dasatinib = compound: CS(=O)(=O)CCNCc1ccc(-c2ccc3ncnc(Nc4ccc(OCc5cccc(F)c5)c(Cl)c4)c3c2)o1 [Lapatinib] + Cc1nc(Nc2ncc(C(=O)Nc3c(C)cccc3Cl)s2)cc(N2CCN(CCO)CC2)n1 [Dasatinib] (partner 0.075 µM)
Summary of the method: as §1

Lapatinib + Alpelisib = compound: CS(=O)(=O)CCNCc1ccc(-c2ccc3ncnc(Nc4ccc(OCc5cccc(F)c5)c(Cl)c4)c3c2)o1 [Lapatinib] + Cc1nc(NC(=O)N2CCC[C@H]2C(N)=O)sc1-c1ccnc(C(C)(C)C(F)(F)F)c1 [Alpelisib] (partner 2 µM)
Summary of the method: as §1

Cell Line	relative viability (Wnt-C59; 0.001 µM)	relative viability (Wnt-C59; 0.01 µM)	relative viability (Wnt-C59; 0.03162 µM)	relative viability (Wnt-C59; 0.1 µM)	relative viability (Wnt-C59 + OSI-027; first compound 0.001 µM)	relative viability (Wnt-C59 + OSI-027; first compound 0.01 µM)	relative viability (Wnt-C59 + OSI-027; first compound 0.03162 µM)	relative viability (Wnt-C59 + OSI-027; first compound 0.1 µM)	relative viability (Lapatinib + Dasatinib; first compound 0.02 µM)	relative viability (Lapatinib + Dasatinib; first compound 0.06325 µM)	relative viability (Lapatinib + Dasatinib; first compound 0.2 µM)	relative viability (Lapatinib + Dasatinib; first compound 0.6325 µM)	relative viability (Lapatinib + Dasatinib; first compound 2 µM)	relative viability (Lapatinib + Alpelisib; first compound 0.02 µM)	relative viability (Lapatinib + Alpelisib; first compound 0.06325 µM)	relative viability (Lapatinib + Alpelisib; first compound 0.2 µM)	relative viability (Lapatinib + Alpelisib; first compound 0.6325 µM)	relative viability (Lapatinib + Alpelisib; first compound 2 µM)
RERF-LC-KJ	1	0.978	1.09	0.987	0.599	0.504	0.658	0.56	0.812	0.545	0.732	0.75	0.36	0.729	0.463	0.673	0.655	0.468
EMC-BAC-2	0.891	0.874	0.868	0.962	0.377	0.36	0.366	0.387	0.294	0.162	0.349	0.358	0.279	0.72	0.652	0.694	0.622	0.592
NCI-H522	1.04	0.927	0.994	0.957	0.683	0.654	0.742	0.784	–	0.907	0.901	0.67	0.787	–	–	–	–	–
NCI-H1651	0.985	0.998	0.997	1	0.767	0.646	0.696	0.709	0.443	0.284	0.386	0.476	0.406	0.919	0.827	0.897	0.828	0.932
IA-LM	1.05	0.909	0.94	0.884	–	–	–	–	–	–	–	–	–	0.653	0.66	0.76	0.763	0.792
NCI-H520	1.1	0.95	0.901	1.07	0.256	0.339	0.3	0.252	0.235	0.161	0.265	0.178	0.187	0.961	0.805	0.912	1.02	0.807
NCI-H1793	0.78	0.681	1.1	0.976	0.189	–	0.287	0.266	–	0.339	0.398	0.319	0.316	–	–	–	0.563	0.384
NCI-H647	0.914	1	0.934	0.946	0.644	0.763	0.779	0.676	0.158	0.155	0.167	0.197	0.201	1.01	0.779	1.06	1.14	1.01
HCC-44	1.04	0.972	0.979	1.04	0.768	0.671	0.538	0.608	–	–	–	–	–	0.689	0.621	0.75	0.873	0.535
HCC-827	1.1	1.05	1.02	1.06	0.877	0.724	0.9	0.761	0.334	0.313	0.281	0.377	0.155	0.89	0.957	0.957	0.914	0.434
NCI-H2170	0.997	0.879	0.939	0.975	0.748	0.468	0.872	0.491	0.394	0.272	0.276	0.419	0.165	0.76	0.551	0.477	0.376	0.21
Calu-6	1.02	1.01	1.05	0.987	–	–	–	–	–	–	–	–	–	0.919	0.93	1.06	1.01	0.894
HCC-366	0.993	0.997	1.06	0.976	0.774	0.542	1.02	1.04	–	0.493	0.572	0.722	0.544	–	0.282	0.381	0.446	0.242
NCI-H2405	1.01	0.932	0.945	0.977	0.633	0.554	0.579	0.476	0.215	0.181	0.208	0.164	0.232	–	0.609	0.733	0.781	0.689
NCI-H1648	0.881	1.06	1.05	0.9	0.292	0.285	0.292	0.246	–	–	–	–	–	–	–	–	–	–
LCLC-97TM1	1.04	0.908	1.07	1.06	0.581	0.512	0.667	0.502	–	–	0.854	0.91	0.875	–	–	0.232	0.284	0.257
EPLC-272H	1.01	0.886	1.15	0.987	0.345	0.231	0.332	0.236	–	–	0.359	0.367	0.272	–	0.807	0.819	0.746	0.821
NCI-H1755	0.994	0.969	0.999	0.914	0.8	0.72	0.644	0.663	0.375	0.278	0.422	0.381	0.394	0.906	0.873	0.915	0.888	0.789
NCI-H1437	0.997	0.997	1	1.03	0.859	0.927	0.859	0.911	0.28	0.245	0.382	0.304	0.345	1	0.869	1.02	0.864	0.866
PC-3 [JPC-3]	1.04	1.06	1.05	1.14	0.83	0.738	0.83	0.773	0.877	0.87	1	0.977	0.624	–	1.04	1.02	0.988	0.585
